Experimental data from patent publication US20260315431A1, “NANOMATERIAL ENCAPSULATED BIOFILM INHIBITORS FOR DENTAL CARIES TREATMENT” (THE UAB RESEARCH FOUNDATION, priority 2023, published 2026).

How the values were obtained:
[1] = HA5 loading into (PMAA)5 hydrogel (UV-visible spectroscopy); assay type: physicochemical; conditions: (PMAA)5 hydrogel cubes soaked in 5 mg/mL HA5 in methanol, 48 h
Protocol: Encapsulation of HA5 inside (PMAA)5 hydrogels microparticles. Compound HA5 was encapsulated in the (PMAA)5 hydrogel cubes through post-loading by soaking the hydrogels in 5 mg/mL solution of HA5 in methanol for 48 h in the dark (FIGS. 1.7A-B). The free, non-encapsulated HA5 was removed from particle solution by rinsing with HEPES buffer (pH=7.4) five times using centrifugation at 5000 rpm for 10 min. The HA5 quantification was carried out with UV-visible spectroscopy (NanoDrop One C, ThermoFisher) at λ=448 nm using an HA5 calibration curve. The drug solution was analyzed before and after the exposure to the hydrogel particles and the differences in the absorbance spectra were used to determine the loading of the drug into the hydrogel network. […] Freshly extracted, intact third molars with flat surfaces obtained from Dr. Nathaniel Lawson's lab (UAB School of Dentistry, IRB-300001291) were used in these studies. The AFM silicon probes NSG30 (NT-MDT, resonance frequency 240-440 kHz, force constant 22-100 N m^−1, tip radii is 10 nm, scan rate is 0.5 Hz) were used for imaging the tooth surfaces in tapping mode before and after hydrogel adhesion. […] The height of the dried hydrogel cubes was determined using section profiles, which indicated an average particle height of 1.3±0.2 μm. […]

S. mutans UA159 = assay: Gnotobiotic rat model of dental caries (PEHA5 / HA5 study, Example 2); assay type: in vivo, gnotobiotic rats infected with S. mutans UA159; parameters: key to Buccal Mean Caries Scores (±SEM) E / Buccal Mean Caries Scores (±SEM) Ds / Buccal Mean Caries Scores (±SEM) Dm / Buccal Mean Caries Scores (±SEM) Dx / Sulcal Mean Caries Scores (± SEM) E / Sulcal Mean Caries Scores (± SEM) Ds / Sulcal Mean Caries Scores (± SEM) Dm / Sulcal Mean Caries Scores (± SEM) Dx / Proximal Mean Caries Scores (± SEM) E / Proximal Mean Caries Scores (± SEM) Ds: caries scored by the Keyes method; conditions: 100 μM
Text: (§1) The effect of PEHA5 on S. mutans colonization and virulence was compared side-by-side with HA5 using a well-established gnotobiotic rat model of dental caries^[50-54]. A (vehicle+infection only) group was included as a negative control. All rats from the experimental groups and from the control group were colonized with S. mutans UA159. […] Similar reductions in caries scores were also observed in sulcal caries scores and proximal caries scores (Table 5). We were unable to record the effect of the treatment on dentinal moderate (Dm) and dentinal extensive (Dx) scores in the proximal area due to the absence of dentinal lesions in the control and treated groups.
We used Fischer 344 rats that were bred and maintained in trexler isolators for this experiment. Male and female rat pups were removed from isolators at 20 days of age and randomly assigned into treatment groups of 5 rats/group in cages with filter tops. Rats were then infected with S. mutans UA159 strain by oral swabbing daily for four consecutive days with a fresh overnight culture of S. mutans UA159. Rats were provided with caries promoting Teklad Diet 305 containing […] (Harlan Laboratories, Inc., Indianapolis, IN) and sterile drinking water ad libitum. Oral swabs were taken 5 days post-infection and plated on Todd Hewitt (TH) agar plates and incubated at 37° C. in an environment of 5% CO2 in the air to confirm colonization. Rats were weighed at weaning and then weekly throughout the experiment. One-week post-infection, the molars of the rats were brushed twice daily for 4 weeks with the test compounds using camel-hair brushes. Four treatment groups used in this study were: 1) HA5 (100 μM); 2) […] (100 μM); 3) NaF (250 ppm); and 4) infected untreated rats. Drinking water was withheld for 60 min following each treatment with the compound. Animals were weighed at weaning and at the termination of the experiment. On day 60, the rats were sacrificed using CO2 followed by cervical dislocation or bilateral thoracotomy. The mandibles were surgically removed and cleaned of excess tissue to assess the level of bacteria present and the extent of caries formation. The right mandible from each rat was placed in a tube containing phosphate buffer (3 mL), placed on ice and sonicated (10 sec) to release bacteria from the molars. Each sample was serially diluted, plated on blood (BAP) and mitis-salivarius (MS) agar plates and incubated in an environment of 5% CO2 in air at 37° C. to quantify the level of total bacteria and S. mutans present in the plaque. The right and left mandibles from each rat were then placed in 95% ethanol for 24 h. The mandibles will be cleaned and stained overnight with murexide solution. After drying, the mandibles were sectioned and scored for caries activity using the Keyes method Caries scores were recorded for the buccal, sulcal and proximal molar surfaces individually so that differences among the surfaces can be distinguished. Statistical significance in the mean caries scores, colony-forming units (CFU)/mandible and body weights between groups of rats were determined by one-way analysis of variance (ANOVA) with the Tukey-Kramer multiple comparison test using the InStat program (GraphPad Prism 10.0.2.). When determining the statistical significance between the two groups, an unpaired t-test was applied. Differences between groups were considered significant at a P-value<0.05.

[2] = Body weight of animals, PEHA5 / HA5 study; assay type: in vivo, gnotobiotic rats; conditions: 100 μM
Text: as §1
We used Fischer 344 rats that were bred and maintained in trexler isolators for this experiment. Male and female rat pups were removed from isolators at 20 days of age and randomly assigned into treatment groups of 5 rats/group in cages with filter tops. […] Each sample was serially diluted, plated on blood (BAP) and mitis-salivarius (MS) agar plates and incubated in an environment of 5% CO2 in air at 37° C. to quantify the level of total bacteria and S. mutans present in the plaque. […] After drying, the mandibles were sectioned and scored for caries activity using the Keyes method Caries scores were recorded for the buccal, sulcal and proximal molar surfaces individually so that differences among the surfaces can be distinguished. […]

## O=C1/C(=C/c2cc(O)c(O)cc2O)Oc2ccccc21 [HA5, 2-[(2′,4′,5′-Trihydroxyphenyl)methylidene]-2,3-dihydro-1-benzofuran-3-one]
[1]
  loading capacity: 5.5×10^−3 ng of HA5 per particle
S. mutans UA159; 4-week treatment
  effect on bacterial colonization: did not affect bacterial colonization significantly
  reduction in caries scores: significant reductions in buccal caries scores
S. mutans UA159; Blood agar plate
  CFU/mL BAP: 5.2 ± 1.4 CFU/mL (×10^5)
S. mutans UA159; Mitis-Salivarius agar
  CFU/mL MS: 5.5 ± 2.6 CFU/mL (×10^5)
S. mutans UA159; dentinal extensive, 4 weeks
  Buccal Mean Caries Scores (±SEM) Dx: 1.4 ± 0.4
  Sulcal Mean Caries Scores (± SEM) Dx: 4.8 ± 0.9
S. mutans UA159; dentinal moderate, 4 weeks
  Buccal Mean Caries Scores (±SEM) Dm: 2.8 ± 0.5
  Sulcal Mean Caries Scores (± SEM) Dm: 9.4 ± 0.5
S. mutans UA159; dentinal slight, 4 weeks
  Buccal Mean Caries Scores (±SEM) Ds: 6.4 ± 1.0
  Proximal Mean Caries Scores (± SEM) Ds: 3.4 ± 0.6
  Sulcal Mean Caries Scores (± SEM) Ds: 15.0 ± 0.9
S. mutans UA159; enamel, 4 weeks
  Buccal Mean Caries Scores (±SEM) E: 9.0 ± 0.6
  Proximal Mean Caries Scores (± SEM) E: 5.2 ± 0.5
  Sulcal Mean Caries Scores (± SEM) E: 20.6 ± 0.8
[2]
  Weight: 145 ± 14 g
[2]; 4-week treatment
  weight loss: did not experience any weight loss
